System: HADHA Mut CMs
Test: Seahorse MitoStress assay, proton leak in fatty acid challenged HADHA Mut CMs
Format: cell-based, human
Conditions: 1 nM, 12D Glc+FA media, vs non-treated Mut CMs
Description: To better understand the pathological state of HADHA Mut and KO CMs exposed to chronic FAs, their mitochondria were functionally assessed. […] Because exposure to FAs led to a reduction in mitochondrial membrane potential and reduced ATP production, it was postulated that this may be due in part to an increased proton leak.
The Seahorse XF96 extracellular flux analyzer was used to assess mitochondrial function as previously described [Kuppusamy, K. T., et al., Let-7 family of microRNA is required for maturation and adult-like metabolism in stem cell-derived cardiomyocytes. Proc Natl Acad Sci U.S.A., 2015]. The plates were pre-treated with 1:60 diluted Matrigel reduced growth factor (Corning). […] The OCR values were further normalized to the number of cells present in each well, quantified by the Hoechst staining (Hoechst 33342; Sigma-Aldrich) as measured using fluorescence at 355 nm excitation and 460 nm emission. […] ATP production was calculated as the difference between the basal respiration and respiration after oligomycin. Proton leak was calculated as the difference between respiration after oligomycin and after antimycin & rotenone. Cellular capacity to utilize palmitate as an energy source was calculated as the difference between the average OCR after second palmitate addition and the final respiration value before the second addition of palmitate. […]

Substance: elamipretide [SS-31]
- proton leak (OCR after oligomycin minus OCR after antimycin & rotenone): significantly lower
- proton leak (OCR after oligomycin minus OCR after antimycin & rotenone) (listed as elamipretide (SS-31)): rescued the increased proton leak
